Measured values taken from PubChem BioAssay AID248 (DTP/NCI, 2004).
Where “and” joins values, the source holds several entries; their conditions need not be identical. Equal entries are not always repeated. Toxic doses and inconclusive results are not listed. Cut-off read from the data, not from the text of the source: active = T/C of 150% or more; inactive = T/C below 125%. Peptide text beside a SMILES is read from it. * marks the point of attachment. Cbz = O=C(OCc1ccccc1)*; Bn = c1ccc(C*)cc1

Test system: L1210 leukemia ip in BDF1 mice, survival T/C
Test: NCI In Vivo Anticancer Drug Screen. Data for tumor model L1210 Leukemia (intraperitoneal) in B6D2F1 (BDF1) mice
Conditions: endpoint: mean survival time, higher = longer survival
Summary of the method: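 Antitumor effect is assessed in tumor-bearing animals. Survival in the compound arm is compared with a vehicle-dosed control arm and expressed as their quotient.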

[1] = dose: 100.0 mg/kg/injection, schedule: Q04DX003 (ip), vehicle: gum acacia
[2] = dose: 200.0 mg/kg/injection, schedule: Q04DX003 (ip), vehicle: gum acacia
[3] = dose: 400.0 mg/kg/injection, schedule: Q04DX003 (ip), vehicle: gum acacia
[4] = dose: 100.0 mg/kg/injection, schedule: Q04DX002 (ip), vehicle: Klucel (hydroxypropylcellulose) (HPC)
[5] = dose: 100.0 mg/kg/injection, schedule: Q01DX009 (ip), vehicle: Klucel (hydroxypropylcellulose) (HPC)
[6] = dose: 400.0 mg/kg/injection, schedule: Q01DX009 (ip), vehicle: Klucel (hydroxypropylcellulose) (HPC)
[7] = dose: 100.0 mg/kg/injection, schedule: Q01DX009 (ip), vehicle: water
[8] = dose: 100.0 mg/kg/injection, schedule: Q04DX003 (ip), vehicle: water
[9] = dose: 200.0 mg/kg/injection, schedule: Q01DX009 (ip), vehicle: water
[10] = dose: 200.0 mg/kg/injection, schedule: Q04DX003 (ip), vehicle: water
[11] = dose: 400.0 mg/kg/injection, schedule: Q01DX009 (ip), vehicle: water
[12] = dose: 400.0 mg/kg/injection, schedule: Q04DX003 (ip), vehicle: water
[13] = dose: 100.0 mg/kg/injection, schedule: Q01DX009 (ip), vehicle: saline with Tween-80
[14] = dose: 200.0 mg/kg/injection, schedule: Q01DX009 (ip), vehicle: saline with Tween-80
[15] = dose: 400.0 mg/kg/injection, schedule: Q01DX009 (ip), vehicle: saline with Tween-80
[16] = dose: 100.0 mg/kg/injection, schedule: Q01DX001 (ip), vehicle: carboxymethylcellulose (CMC)
[17] = dose: 200.0 mg/kg/injection, schedule: Q01DX001 (ip), vehicle: carboxymethylcellulose (CMC)
[18] = dose: 400.0 mg/kg/injection, schedule: Q01DX001 (ip), vehicle: carboxymethylcellulose (CMC)
[19] = dose: 100.0 mg/kg/injection, schedule: Q01DX001 (ip), vehicle: other
[20] = dose: 200.0 mg/kg/injection, schedule: Q01DX001 (ip), vehicle: other
[21] = dose: 100.0 mg/kg/injection, schedule: Q04DX003 (ip), vehicle: Klucel (hydroxypropylcellulose) (HPC)
[22] = dose: 200.0 mg/kg/injection, schedule: Q01DX009 (ip), vehicle: Klucel (hydroxypropylcellulose) (HPC)
[23] = dose: 200.0 mg/kg/injection, schedule: Q04DX003 (ip), vehicle: Klucel (hydroxypropylcellulose) (HPC)
[24] = dose: 400.0 mg/kg/injection, schedule: Q04DX003 (ip), vehicle: Klucel (hydroxypropylcellulose) (HPC)
[25] = dose: 100.0 mg/kg/injection, schedule: Q04DX003 (ip), vehicle: saline with Tween-80
[26] = dose: 200.0 mg/kg/injection, schedule: Q04DX003 (ip), vehicle: saline with Tween-80
[27] = dose: 100.0 mg/kg/injection, schedule: Q01DX001 (ip), vehicle: saline
[28] = dose: 200.0 mg/kg/injection, schedule: Q01DX001 (ip), vehicle: saline
[29] = dose: 400.0 mg/kg/injection, schedule: Q01DX001 (ip), vehicle: saline

Measured: T/C

O=C(NC(CSCc1ccccc1)C(=O)NC(Cc1ccc(O)cc1)C(=O)O)OCc1ccccc1 (stereo unspecified) (Cbz-Cys(Bn)-Tyr-OH; configuration not given here)
inactive: dose: 100.0 mg/kg/injection, schedule: Q01DX009 (ip), vehicle: gum acacia 95 % of control | [1] 103 % of control | dose: 200.0 mg/kg/injection, schedule: Q01DX009 (ip), vehicle: gum acacia 95 % of control | [2] 103 % of control | dose: 400.0 mg/kg/injection, schedule: Q01DX009 (ip), vehicle: gum acacia 89 % of control | [3] 92 % of control

O=S(=O)(F)c1c(Cl)cccc1C[P+](c1ccccc1)(c1ccccc1)c1ccccc1
inactive: dose: 6.25 mg/kg/injection, schedule: Q01DX001 (ip), vehicle: saline with Tween-80 99 % of control | dose: 12.5 mg/kg/injection, schedule: Q01DX001 (ip), vehicle: saline with Tween-80 100 % of control | dose: 25.0 mg/kg/injection, schedule: Q01DX001 (ip), vehicle: saline 105 % of control

CCNC(=O)C1C(c2ccccc2)C1c1ccccc1 (stereo unspecified)
inactive: dose: 25.0 mg/kg/injection, schedule: Q04DX002 (ip), vehicle: Klucel (hydroxypropylcellulose) (HPC) 97 % of control | dose: 50.0 mg/kg/injection, schedule: Q04DX002 (ip), vehicle: Klucel (hydroxypropylcellulose) (HPC) 102 % of control | [4] 102 % of control

COC1OC(C2N(c3ccccc3)CCN2c2ccccc2)=CC(OC(C)=O)C1OC(C)=O (stereo unspecified)
inactive: [5] 86 % of control | [6] 90 % of control

CCOC(=O)CNc1cc(Cl)cc(Cl)c1
inactive: [4] 100 % of control | dose: 200.0 mg/kg/injection, schedule: Q04DX002 (ip), vehicle: Klucel (hydroxypropylcellulose) (HPC) 96 % of control | dose: 400.0 mg/kg/injection, schedule: Q04DX002 (ip), vehicle: Klucel (hydroxypropylcellulose) (HPC) 96 % of control

O=C(O)C1C2CC3OCC1C3C2 (stereo unspecified)
inactive: dose: 100.0 mg/kg/injection, schedule: Q04DX003 (ip), vehicle: alkali diluted with saline 104 % of control | dose: 200.0 mg/kg/injection, schedule: Q04DX003 (ip), vehicle: alkali diluted with saline 98 % of control | dose: 400.0 mg/kg/injection, schedule: Q04DX003 (ip), vehicle: alkali diluted with saline 93 % of control

COc1ccc(/C=C/C(=O)c2ccc(OC)c(OCc3ccccc3)c2)cc1OC
inactive: [7] 98 % of control | [8] 98 % of control | [9] 93 % of control | [10] 94 % of control | [11] 97 % of control | [12] 98 % of control

O=C(CNc1ccccc1)NCc1ccccc1
inactive: [13] 92 % of control | [14] 95 % of control | [15] 97 % of control

CCCCCCCCCCCCCCCc1ccc2c3c(cccc13)C=C2
inactive: [16] 92 % of control | [17] 92 % of control | [18] 90 % of control

Cc1cc([N+](=O)[O-])c2nnnn2c1
inactive: [19] 108 % of control | [20] 90 % of control

CCCCCC1CCC(O)CC1 (stereo unspecified)
inactive: [5] 95 % of control | [21] 106 % of control | [22] 90 % of control | [23] 111 % of control | [6] 105 % of control | [24] 103 % of control

CCOC(=O)c1ccc(NCc2nc3nc(N)nc(N)c3[nH]2)cc1
inactive: dose: 75.0 mg/kg/injection, schedule: Q01DX001 (ip), vehicle: other 102 % of control | dose: 150.0 mg/kg/injection, schedule: Q01DX001 (ip), vehicle: other 97 % of control | dose: 300.0 mg/kg/injection, schedule: Q01DX001 (ip), vehicle: other 97 % of control

Cc1cc2ccccc2cn1
inactive: dose: 50.0 mg/kg/injection, schedule: Q01DX001 (ip), vehicle: other 103 % of control | [19] 101 % of control | [25] 96 % of control | [20] 95 % of control | [26] 103 % of control

CC(N)C(=O)Nc1ccccc1 (stereo unspecified)
inactive: [7] 94 % of control | [8] 97 % of control | [9] 100 % of control | [10] 103 % of control | [11] 100 % of control | [12] 97 % of control

Cc1cn(C2OC(CO)C(O)C(O)C2N)c(=O)[nH]c1=O (stereo unspecified)
inactive: dose: 50.0 mg/kg/injection, schedule: Q01DX001 (ip), vehicle: saline 107 % of control | [27] 97 % of control and 103 % of control | [28] 97 % of control and 108 % of control | [29] 103 % of control and 105 % of control

Nc1ccc(Nc2ccc([N+](=O)[O-])cc2)cc1
inactive: dose: 75.0 mg/kg/injection, schedule: Q01DX009 (ip), vehicle: Klucel (hydroxypropylcellulose) (HPC) 91 % of control | dose: 150.0 mg/kg/injection, schedule: Q01DX009 (ip), vehicle: Klucel (hydroxypropylcellulose) (HPC) 105 % of control | dose: 300.0 mg/kg/injection, schedule: Q01DX009 (ip), vehicle: Klucel (hydroxypropylcellulose) (HPC) 100 % of control

Oc1ccc(O)c2c1C1C=CC2CC1
inactive: [27] 96 % of control | [28] 105 % of control | [29] 98 % of control

CCOc1ccc(-n2c(O)c(N=Nc3ccccc3)c(=O)n(-c3ccccc3)c2=S)cc1
inactive: dose: 50.0 mg/kg/injection, schedule: Q04DX003 (ip), vehicle: acetone 94 % of control | dose: 100.0 mg/kg/injection, schedule: Q04DX003 (ip), vehicle: acetone 89 % of control | dose: 200.0 mg/kg/injection, schedule: Q04DX003 (ip), vehicle: acetone 96 % of control

C=CCNC(=O)c1cncc(C(=O)O)c1
inactive: [27] 96 % of control | [28] 104 % of control | [29] 98 % of control

CC(C)CC(=O)CC(Cl)(C(F)(F)F)C(F)(F)F
inactive: [1] 100 % of control | [2] 100 % of control | [3] 90 % of control

COc1cc(OC)c(OC)cc1/C=C/c1ccc2ccccc2n1
inactive: [13] 91 % of control | [14] 100 % of control | [15] 98 % of control

CC(C)(C)OC(=O)/N=N/C(=O)OC(C)(C)C
inactive: [16] 102 % of control | [17] 94 % of control | [18] 94 % of control

CCCCCC/C=C/C1CC(=O)OC1=O (stereo unspecified)
inactive: dose: 25.0 mg/kg/injection, schedule: Q01DX009 (ip), vehicle: saline with Tween-80 100 % of control | dose: 50.0 mg/kg/injection, schedule: Q01DX009 (ip), vehicle: saline with Tween-80 88 % of control | dose: 50.0 mg/kg/injection, schedule: Q04DX003 (ip), vehicle: saline with Tween-80 98 % of control | [13] 100 % of control | [25] 101 % of control and 112 % of control | [14] 97 % of control | [26] 95 % of control and 101 % of control | dose: 400.0 mg/kg/injection, schedule: Q04DX003 (ip), vehicle: saline with Tween-80 103 % of control

O=C1OC2C3c4ccccc4C(c4c3ccc3ccccc43)C2O1 (stereo unspecified)
inactive: [21] 103 % of control | [23] 95 % of control | [24] 95 % of control

Cc1cccc2cc3ccc4ccccc4c3cc12
inactive: [5] 102 % of control | dose: 100.0 mg/kg/injection, schedule: Q04DX003 (ip), vehicle: other 101 % of control | [22] 95 % of control | dose: 200.0 mg/kg/injection, schedule: Q04DX003 (ip), vehicle: other 101 % of control | [6] 101 % of control | dose: 400.0 mg/kg/injection, schedule: Q04DX003 (ip), vehicle: other 95 % of control

CCCCCCCCCCCCCCCCCCCCCCCCCCCCCCCS
inactive: [19] 95 % of control | [20] 103 % of control

CCC(CC)NCC(C)O (stereo unspecified)
inactive: dose: 75.0 mg/kg/injection, schedule: Q01DX001 (ip), vehicle: saline 105 % of control | dose: 150.0 mg/kg/injection, schedule: Q01DX001 (ip), vehicle: saline 108 % of control | dose: 300.0 mg/kg/injection, schedule: Q01DX001 (ip), vehicle: saline 102 % of control
